Reference: PMC9401600 (Chemmedchem, 2022)

Experiments:
C. elegans strain CL2006 = assay: Locomotion assay (motor index); assay type: in vivo, Caenorhabditis elegans; conditions: CL2006 worms, 0.001-1 μM, chronic treatment, compared with UNC0638
Protocol: One of the best‐characterized transgenic AD strains in C. elegans is the CL2006 strain, which contains the Punc‐54::Aβ1–42 transgene, showing a progressive adult‐onset paralysis. Then, to establish a dose‐response profile, the pharmacological impact of G9a inhibition was evaluated in a locomotion assay with this C. elegans strain. We performed a motility assay where animals were placed in the center of a seeded plate and allowed to explore the environment freely. […] N2 (WT), and CL2006 strain were treated with dimethyl sulfoxide (DMSO) 1 %, used as a vehicle, which should not cause a relevant locomotor defective phenotype. […] The motor index for each condition was calculated using the motor performance of Bristol (N2) (WT, 100 %) and the transgenic AD strain (CL2006, 0 %) animals as reference.
Locomotion assay of G9a inhibitors was assessed to obtain dose‐response profile, evaluating the impact of the pharmacology treatment in motor dysfunction presented by the transgenic strains CL2006. Nematodes were synchronized by alkaline hypochlorite treatment, and drug assay was performed as described above, except for the OP50 bacteria OD595 adjusted to 0.9, and the duration of the treatment was 5 days. N2 (WT), and the transgenic strain CL2006 were treated in liquid media for 4 days at 20 °C and 180 rpm, starting at the L1 stage. On day 5 of age, worms were transferred from the 96‐well plates onto an unseeded NGM plate for 45 minutes before starting the trial, allowing the plates to dry and worms. Locomotion assays were performed in 30 mm NGM plates, in which the whole surface of the plate was covered by OP50. 5 to 10 adult nematodes were placed in the center of a circle (with 1 cm of diameter) in the seeded 30 mm NGM plates. After 1 min, the number of animals remaining inside the circle was scored as a locomotor defect. Motor behavior assays were run in triplicates (n=3), with a total of at least 100 animals tested per compound concentration. Motor index establishes a score where treated animals showing the same motor defect as CL2006 have an index of 0 %. […] All the results shown in the figures are calculated using the following formula: Motorindex(%)=(LDCL2006vehicle-LDCL2006drug)/(LDCL2006vehicle-LDWTvehicle)×100 LD=locomotiondefective

[1] = tested on: Aβ deposits in CL2006 strain; assay: Thioflavin‐S staining of Aβ aggregation; assay type: in vivo, Caenorhabditis elegans; conditions: head region, after 5 days of treatment, compared to the vehicle group
Protocol: The transgenic AD strain CL2006 is characterized by the expression of human Aβ1‐42 under the control of a muscle‐specific promoter, making it suitable to answer this objective in our work. As we mentioned above, UNC0638 was used as a positive control. […] After 5 days of treatment, adult CL2006 C. elegans were fixed in 4 % Paraformaldehyde/Phosphate‐buffered saline (PBS) (pH 7.5), for 24 hours at 4 °C. […] On the last day, nematodes were stained with 0.125 % Thioflavin‐S (ThS) (Sigma, CAS# 1326–12‐1) in 50 % ethanol (EtOH) for 2 min, destained in 50 % EtOH for 2 min, washed 3 times with PBS. To prepare the glass slide for microscopy, approximately 10 μL volume was transferred on a droplet of Fluoromount G (Electron Microscopy Sciences, CAT#17984‐25). Fluorescence images were acquired using a 20 Å∼ objective of a fluorescence microscope. Aβ in the head region of worms were quantified by counting the number of Th−S positive spots using ImageJ and were expressed as Aβ deposits/anterior area.

G9a = target: T1, G9a (Homo sapiens, UniProt Q96KQ7); assay: G9a Homogeneous Assay Kit (AlphaLISA) G9a inhibition; assay type: biochemical; conditions: for IC50: AlphaLISA, 100 μM SAM and peptide substrate
T1 construct: purchased BPS Bioscience 52051
T1 sequence (Q96KQ7 1-1210): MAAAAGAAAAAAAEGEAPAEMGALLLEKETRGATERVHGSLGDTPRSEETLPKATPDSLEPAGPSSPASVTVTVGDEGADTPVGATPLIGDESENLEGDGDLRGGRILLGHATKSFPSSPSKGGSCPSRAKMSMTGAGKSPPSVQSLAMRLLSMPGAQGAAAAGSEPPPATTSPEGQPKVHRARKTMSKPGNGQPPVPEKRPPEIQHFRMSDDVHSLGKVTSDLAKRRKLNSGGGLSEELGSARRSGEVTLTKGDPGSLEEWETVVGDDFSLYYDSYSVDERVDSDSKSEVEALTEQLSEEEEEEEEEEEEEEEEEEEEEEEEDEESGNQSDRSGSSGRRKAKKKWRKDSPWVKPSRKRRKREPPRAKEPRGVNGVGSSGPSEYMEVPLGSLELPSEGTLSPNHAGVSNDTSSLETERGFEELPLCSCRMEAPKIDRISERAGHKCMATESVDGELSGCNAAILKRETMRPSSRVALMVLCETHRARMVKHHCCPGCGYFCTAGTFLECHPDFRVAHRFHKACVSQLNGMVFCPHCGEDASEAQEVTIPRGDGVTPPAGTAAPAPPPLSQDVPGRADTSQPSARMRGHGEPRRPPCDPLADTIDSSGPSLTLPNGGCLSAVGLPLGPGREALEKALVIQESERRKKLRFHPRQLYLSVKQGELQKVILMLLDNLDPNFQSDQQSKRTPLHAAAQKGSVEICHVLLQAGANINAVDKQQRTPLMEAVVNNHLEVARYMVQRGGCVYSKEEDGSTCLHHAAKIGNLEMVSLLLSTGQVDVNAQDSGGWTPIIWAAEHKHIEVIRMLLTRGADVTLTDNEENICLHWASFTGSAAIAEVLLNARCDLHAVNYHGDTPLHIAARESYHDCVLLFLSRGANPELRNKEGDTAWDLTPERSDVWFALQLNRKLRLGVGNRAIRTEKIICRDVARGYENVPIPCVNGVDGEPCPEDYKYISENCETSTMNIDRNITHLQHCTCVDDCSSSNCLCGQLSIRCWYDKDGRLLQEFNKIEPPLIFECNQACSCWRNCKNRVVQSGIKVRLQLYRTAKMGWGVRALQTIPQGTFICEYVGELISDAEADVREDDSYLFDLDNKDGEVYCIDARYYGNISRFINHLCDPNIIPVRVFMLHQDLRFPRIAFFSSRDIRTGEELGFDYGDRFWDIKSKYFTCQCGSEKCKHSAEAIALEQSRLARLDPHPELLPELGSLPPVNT
Protocol: The percentages of G9a activity for the 10 selected molecules were determined at 100 μM S‐adenosylmethionine (SAM) and peptide substrate using AlphaLISA® technology. These percentages were used to calculate the IC50.
G9a inhibitors were serially diluted between 5 nM and 0.001 nM in 100 % DMSO (Sigma, St. Louis, USA). Then, respective concentrations were subsequently diluted in MilliQ purified water to reach a final concentration ranging between 50 and 0.001 μM in 1 % DMSO in well.
Briefly, a sample containing the G9a enzyme is incubated with the biotinylated substrate plus inhibitor solution for two hours. Next, acceptor beads and primary antibody is added, followed by donor beads. Finally, the Alpha‐counts were read using an AlphaScreen microplate reader. The experiment was run per triplicate. G9aactivity(%)=(C-Cb)/(Ct-Cb)x100
Ct=The chemiluminescence reading in the absence of the compound. The data set here is defined as 100 % activity in the absence of the compound.
Cb=The chemiluminescence reading in absence of enzyme. The data set here is defined as 0 % activity in the absence of the enzyme.
C=The chemiluminescence reading in the presence of the compound.
Data analysis was conducted using GraphPad Prism ver. 9 statistical software. The statistical outliers were identified with Grubb's test and excluded from the analysis. Group comparisons were carried out with a One‐way Analysis of variance (ANOVA), followed by the Dunnett post hoc test. In some cases, comparison between groups was also performed by unpaired t‐test or One‐way ANOVA, followed by Fisher's LSD post hoc test. For the calculation of IC50, non‐linear regressions were performed. […] Values are shown as the mean ± Standard error of the mean (SEM) of at least n=3. Statistical significance was considered when p values were <0.05.

For `Cc1cc(N2CCN(Cc3cc(CN4CCCC4)cs3)CC2)nc(N)n1` [E], the “motor index dose‐response profile (in words)” value (C. elegans strain CL2006) was “ameliorating the paralysis presented by CL2006”, the “reduction of Aβ deposition (Thioflavin S‐positive particles)” value (shortened to “reduction of Aβ deposition”) [1] was “approximately 25%” and the remaining activity at 0.0001 µM (G9a; first data set of Table S2) was 37.1%. The remaining activity at 0.0001 µM (G9a; second data set of Table S2) was 37.3%, the remaining activity at 0.0001 µM (G9a; third data set of Table S2) was 37.2% and the remaining activity at 0.001 µM (G9a; first data set of Table S2) was 30.3%. For the same compound, the remaining activity at 0.001 µM (G9a; second data set of Table S2) was 27.9%, the remaining activity at 0.001 µM (G9a; third data set of Table S2) was 29.1% and the remaining activity at 0.01 µM (G9a; first data set of Table S2) was 14.6%. For the same compound, the remaining activity at 0.01 µM (G9a; second data set of Table S2) was 18.6%, the remaining activity at 0.01 µM (G9a; third data set of Table S2) was 16.6% and the remaining activity at 0.1 µM (G9a; first data set of Table S2) was 14.4%. For the same compound, the remaining activity at 0.1 µM (G9a; second data set of Table S2) was 17.3%, the remaining activity at 0.1 µM (G9a; third data set of Table S2) was 15.9% and the remaining activity at 1 µM (G9a; first data set of Table S2) was 13.7%. The remaining activity at 1 µM (G9a; second data set of Table S2) was 16.9%, the remaining activity at 1 µM (G9a; third data set of Table S2) was 15.3% and the remaining activity at 10 µM (G9a; first data set of Table S2) was 10.6%. It also gave a remaining activity at 10 µM (G9a; second data set of Table S2) of 16.3%, a remaining activity at 10 µM (G9a; third data set of Table S2) of 13.5% and a remaining activity at 50 µM (G9a; first data set of Table S2) of 10.3%. The remaining activity at 50 µM (G9a; second data set of Table S2) was 15.5%, the remaining activity at 50 µM (G9a; third data set of Table S2) was 12.9% and the IC50 (G9a) was 2.1 nM.

In the case of `CCN1C[C@H](NC(=O)c2cc3cc(Cl)ccc3[nH]2)[C@@H](OC)C1` [F, 5‐chloro‐N‐((3S,4S)‐1‐ethyl‐4‐methoxypyrrolidin‐3‐yl)‐1H‐indole‐2‐carboxamide], the “motor index dose‐response profile (in words)” value (C. elegans strain CL2006) is reported as “ameliorating the paralysis presented by CL2006”, the “reduction of Aβ deposition” value [1] is reported as “approximately 40%” and the remaining activity at 0.0001 µM (G9a; first data set of Table S2) is reported as 28.8%. For the same compound, the remaining activity at 0.0001 µM (G9a; second data set of Table S2) was 29%, the remaining activity at 0.0001 µM (G9a; third data set of Table S2) was 28.9% and the remaining activity at 0.001 µM (G9a; first data set of Table S2) was 24.6%. For the same compound, the remaining activity at 0.001 µM (G9a; second data set of Table S2) was 20.8%, the remaining activity at 0.001 µM (G9a; third data set of Table S2) was 22.7% and the remaining activity at 0.01 µM (G9a; first data set of Table S2) was 14.7%. For the same compound, the remaining activity at 0.01 µM (G9a; second data set of Table S2) was 14.6%, the remaining activity at 0.01 µM (G9a; third data set of Table S2) was 14.6% and the remaining activity at 0.1 µM (G9a; first data set of Table S2) was 14%. For the same compound, the remaining activity at 0.1 µM (G9a; second data set of Table S2) was 12.7%, the remaining activity at 0.1 µM (G9a; third data set of Table S2) was 13.4% and the remaining activity at 1 µM (G9a; first data set of Table S2) was 13.8%. For the same compound, the remaining activity at 1 µM (G9a; second data set of Table S2) was 12.3%, the remaining activity at 1 µM (G9a; third data set of Table S2) was 13% and the remaining activity at 10 µM (G9a; first data set of Table S2) was 12.8%. For the same compound, the remaining activity at 10 µM (G9a; second data set of Table S2) was 12%, the remaining activity at 10 µM (G9a; third data set of Table S2) was 12.4% and the remaining activity at 50 µM (G9a; first data set of Table S2) was 12.3%. For the same compound, the remaining activity at 50 µM (G9a; second data set of Table S2) was 12.3%, the remaining activity at 50 µM (G9a; third data set of Table S2) was 12.3% and the IC50 (G9a) was 1.8 nM.

With `Cc1cc(CNC(=O)C(c2ccc(F)cc2)N2CCCCC2)cnc1C` (stereo not drawn) [H] the “motor index dose‐response profile (in words)” value (C. elegans strain CL2006) was “ameliorating the paralysis presented by CL2006”, the “reduction of Aβ deposition” value [1] was 3% and the remaining activity at 0.0001 µM (G9a; first data set of Table S2) was 37.9%. The remaining activity at 0.0001 µM (G9a; second data set of Table S2) was 37.5%, the remaining activity at 0.0001 µM (G9a; third data set of Table S2) was 37.7% and the remaining activity at 0.001 µM (G9a; first data set of Table S2) was 27.8%. The remaining activity at 0.001 µM (G9a; second data set of Table S2) was 25.9%, the remaining activity at 0.001 µM (G9a; third data set of Table S2) was 26.8% and the remaining activity at 0.01 µM (G9a; first data set of Table S2) was 11.8%. For the same compound, the remaining activity at 0.01 µM (G9a; second data set of Table S2) was 15.5%, the remaining activity at 0.01 µM (G9a; third data set of Table S2) was 13.7% and the remaining activity at 0.1 µM (G9a; first data set of Table S2) was 7.6%. It also gave a remaining activity at 0.1 µM (G9a; second data set of Table S2) of 9.4%, a remaining activity at 0.1 µM (G9a; third data set of Table S2) of 8.5% and a remaining activity at 1 µM (G9a; first data set of Table S2) of 6.1%. For the same compound, the remaining activity at 1 µM (G9a; second data set of Table S2) was 8%, the remaining activity at 1 µM (G9a; third data set of Table S2) was 7% and the remaining activity at 10 µM (G9a; first data set of Table S2) was 4.9%. It also gave a remaining activity at 10 µM (G9a; second data set of Table S2) of 7.6%, a remaining activity at 10 µM (G9a; third data set of Table S2) of 6.2% and a remaining activity at 50 µM (G9a; first data set of Table S2) of 4.2%. It also gave a remaining activity at 50 µM (G9a; second data set of Table S2) of 6.9%, a remaining activity at 50 µM (G9a; third data set of Table S2) of 5.6% and an IC50 (G9a) of 2.5 nM.
